Laboratory results reported in ChEMBL document CHEMBL4304793, “Evaluation of a Series of β-Secretase 1 Inhibitors Containing Novel Heteroaryl-Fused-Piperazine Amidine Warheads” (ACS Med Chem Lett, 2019).

Assay: Dissociation constant, pKa of compound
Assay type: physicochemical

Going from `C[C@@]1(c2cc(NC(=O)c3ccc(C#N)cn3)ccc2F)Cn2cnnc2C(N)=N1` to `C[C@@]1(c2cc(NC(=O)c3ccc(C#N)cn3)ccc2F)Cn2ccnc2C(N)=N1`, the pKa rises from 6.4 to 8.2.

Compared with `C[C@@]1(c2cc(NC(=O)c3ccc(C#N)cn3)ccc2F)Cn2cccc2C(N)=N1`, `C[C@@]1(c2cc(NC(=O)c3ccc(C#N)cn3)ccc2F)Cn2cncc2C(N)=N1` is lower in pKa: 10.3 for the first, 9 for the second.

Going from `C[C@@]1(c2cccc(NC(=O)c3ccc(C#N)cn3)c2)Cn2nccc2C(N)=N1` to `C[C@@]1(c2cc(NC(=O)c3ccc(C#N)cn3)ccc2F)Cn2nncc2C(N)=N1`, the pKa falls from 8.5 to 7.1.

First: C[C@@]1(c2cc(NC(=O)c3ccc(C#N)cn3)ccc2F)Cn2ncnc2C(N)=N1
Second: C[C@@]1(c2cc(NC(=O)c3ccc(C#N)cn3)ccc2F)Cn2nnnc2C(N)=N1
The pKa of the first is higher: 6.5 for the first, 5.1 for the second.
